Data taken from publication PMC10287566, “Signaling-specific inhibition of the CB1 receptor for cannabis use disorder: phase 1 and phase 2a randomized trials” (Nature Medicine, 2023).

Columns and labels:
[1] = tested on: mice; experiment: Depression-related behavior, sucrose preference test, repeated treatment; format: in vivo
Source text: (§1) Anxiety-like behaviors were studied in the elevated plus maze (EPM), a rodent model used to evaluate the putative anxiogenic or anxiolytic effects of pharmacological compounds. Depression-related behaviors were studied using the sucrose preference test as a model of anhedonia, one of the cardinal symptoms of depression.
The sucrose preference test was done in the home cage. Two identical bottles, one containing water and the other containing a 2% sucrose solution, were placed in the hopper of each cage. The mice had unlimited access to water and sucrose solutions during the active phase—the dark phase of the light/dark cycle that started at 20:00. The volume of water and of sucrose solution consumed was measured over two […] intervals, the first between 19:00 and 20:30 and the second between 20:30 and 22:00. At each timepoint, the bottles were weighed, and the intake volume was calculated by subtracting the […].
(§2) The EPM assessment was done on day 26, and the sucrose preference test was done on day 28.

[2] = tested on: DIO mice; experiment: Food intake and body weight in diet-induced obese mice, repeated treatment; format: in vivo
Description: Body weight and food intake were studied because they are reduced by repeated treatment with rimonabant both in mice[31] and in humans. DIO mice were used because the effects of CB1 antagonists are of greater amplitude in obese mice than in lean mice. Male C57BL/6J mice (8 weeks old) were fed ad libitum with a high-fat diet (HFD) for 8 weeks before the start of the pharmacological treatments. During pharmacological treatments, the HFD was maintained, and food intake and body weight were measured daily. The food consumed was calculated by subtracting the food left in the hoppers from the initial pre-weighed amount.

[3] = tested on: mice; experiment: Anxiety-related behavior, elevated plus maze, repeated treatment; format: in vivo
Source text: as §1
The EPM apparatus comprises four elevated arms arranged in a cross-like shape, with the two opposite arms enclosed by walls and the other two arms open. For all experiments, mice were placed in the center of the EPM and were free to explore the maze for 5 min after receiving the treatment. The time spent and the number of entries into the open and closed arms were measured by an automatic video tracking system (EthoVision XT version 12, Noldus Information Technology). A decrease in the percentage of visits and/or the time spent in open arms is considered an index of increased anxiety.
as §2

[4] = tested on: mice; set-up: method as in earlier work; conditions: 10 mg/kg, not run in parallel; cited from earlier work
[5] = tested on: mice; experiment: Glucocorticoid (corticosterone) secretion in mice; format: in vivo; conditions: glucocorticoid, 10 mg/kg the known ID100
Description: Blood sampling was performed 2, 5, 8 and 24 h after dosing (n = 3 per sex per dose per sampling time). For blood sampling, mice were anaesthetized under isoflurane, and blood was collected by cardiac puncture. Blood was centrifuged, and plasma was taken and frozen at −80 °C until quantifications of corticosterone by GC–MS/MS.

[6] = tested on: mice; experiment: Precipitated withdrawal in THC-dependent mice; format: in vivo
Description: From day 1 to days 4–5, mice were injected i.p. with vehicle or THC (20 mg kg^−1) twice per day. On the last day of treatment, mice in the THC group received rimonabant or AEF0117. All other animals received the respective vehicle. […] For the measure of precipitated withdrawal, mice were placed in a novel home cage, and a video camera was positioned in front of each cage to record behavior. Scoring was performed for 1 min every 5-min period. Two withdrawal signs were analyzed—paw tremors and head shaking—because they are the most common signs of THC withdrawal observed in mice[14].

Cc1c(C(=O)NN2CCCCC2)nn(-c2ccc(Cl)cc2Cl)c1-c1ccc(Cl)cc1 [rimonabant, Rimonabant]
N fold ID100 at highest dose tested ([1]; depression, 10 mg/kg the known ID100): 1
Overall effect: increase in depression-related behaviors ([1]; mice, sucrose preference test, highest dose tested 10 mg/kg, run in parallel): Yes
body weight in DIO mice vs vehicle ([2]; 10 mg/kg): decreased
N fold ID100 at highest dose tested ([2]; food-intake, 10 mg/kg the known ID100): 1
Overall effect: inhibition of spontaneous food-intake ([2]; mice, highest dose tested 10 mg/kg, run in parallel): Yes
N fold ID100 at highest dose tested ([3]; anxiety, 10 mg/kg the known ID100): 1
Overall effect: increase in anxiety-related behaviors ([3]; mice, elevated plus maze, highest dose tested 10 mg/kg, run in parallel): Yes
Overall effect: increase in glucocorticoid secretion [4]: Yes
N fold ID100 at highest dose tested [5]: 1
Overall effect: precipitated withdrawal in THC-dependent mice ([6]; highest dose tested 10 mg/kg, run in parallel): Yes
N fold ID100 at highest dose tested ([6]; withdrawal, 10 mg/kg the known ID100): 1
